These results are taken from PubChem BioAssay (NCI).

What all share (experiment): NCI-60 cell line screen, 48 h
The subject of test [1] is U251 CNS.
The test system of test [2] is NCI-H226 lung.
Test [3] concerns OVCAR-8 ovarian.
Test [4] relates to 786-0 renal.
Test [5] has as its system NCI-H23 lung.
Test [6] relates to SK-MEL-5 melanoma.
The test system of test [7] is HOP-62 NSCLC.
Test [8] relates to SW-620 colon.
Test [9] relates to SK-MEL-28 melanoma.
The subject of test [10] is A498 renal.

Molecules are shown by their SMILES. “And” between values parts separate entries of the source, which are not always exact repeats. Equal entries are not always repeated.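 Five compound concentrations were applied to cells in 96-well plates for 48 hours; endpoints were derived by simple linear interpolation of the resulting dose-response curve. GI50 marks 50% less growth. The concentration for full growth arrest is given as TGI.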 Where only a bound is given, the exact number is not on record here.

`C/C(CC(=O)Nc1ccc(C)c(C)c1)=N\NC(N)=O`: the TGI in [1], in test [2], in test [3], in test [4], in test [5] and in test [6] was more than 100 µM each time. The TGI in [7], in [8], in test [9] and in [10] was more than 100 µM throughout.
On to `Cn1cnc([N+](=O)[O-])c1Sc1nccn1-c1cccc2ccccc12`, for which the TGI is more than 100 µM in test [1]; 59.6 µM in test [2]; 58.8 µM in [3]; more than 100 µM in test [4]; 50.6 µM in [5]; more than 100 µM in [6]. For the same molecule, the TGI is more than 100 µM in [7], more than 100 µM in test [8], 67.8 µM in test [9] and more than 100 µM in [10].
`Cc1csc(/C=C/C(=O)c2nnn(-c3ccnc4c(C(F)(F)F)cccc34)c2C)c1`: the GI50 was 39.2 µM in test [1]; 53.8 µM in [2]; more than 100 µM in test [3]; more than 100 µM in [4]; 48.9 µM in test [5]; 17.9 µM in [6]. The GI50 is more than 100 µM in [7], more than 100 µM in [8], 71.1 µM in test [9] and more than 100 µM in test [10]. The TGI was more than 100 µM in test [1]; more than 100 µM in [2]; more than 100 µM in [3]; more than 100 µM in test [4]; more than 100 µM in [5]; 57 µM in test [6]. Further, the TGI in test [7], in test [8], in test [9] and in test [10] was more than 100 µM each time.
On to `O=C(c1ccccc1)C(CN1CCCCC1)c1ccccc1` (stereo not given), for which the GI50 was 1.48 µM in [1]; 3.67 µM in test [2]; 1.7 µM in [3]; 1.91 µM in [4]; 1.65 µM in [5]; 2.38 µM in test [6]. Besides, the GI50 was 2.03 µM in test [7], 0.583 µM in test [8], 3.25 µM in test [9] and 9.33 µM in test [10]. The TGI in test [1] was 3.24 µM; in [2], 14.8 µM; in test [3], 4.36 µM; in [4], 3.45 µM; in [5] it was 3.78 µM; in [6], 6.74 µM. Also, the TGI in test [7] was 5.9 µM; in test [8] it was 2.17 µM; in test [9], 11.4 µM; in test [10], 22 µM.
`Cc1nc(-c2cn3c(n2)-c2ccc(-c4cnn(C(C)(C)C(N)=O)c4)cc2OCC3)n(C(C)C)n1`: the GI50 in test [1] is 0.68 µM and 1.51 µM; in test [2], 3.98 µM and 2.87 µM; in [3], 3.38 µM and 5.87 µM; in test [4], 1.05 µM and 0.747 µM; in test [5], 13.8 µM and > 5.49 µM; in [6], 4.1 µM and 2.79 µM. Besides, the GI50 in [7] is 0.726 µM and 4.51 µM; in test [8], 8.08 µM and 3.48 µM; in test [9], 0.535 µM and 0.414 µM; in test [10], 0.143 µM and 0.274 µM. Moreover, the TGI in test [1] is 25.4 µM and > 10 µM; in [2], 97.4 µM and > 10 µM; in test [3], 75.9 µM and > 10 µM; in test [4] it was more than 100 µM; in test [5] it was more than 100 µM; in [6], 17.2 µM and > 10 µM. In addition, the TGI was 60.4 µM and > 10 µM in test [7]; more than 100 µM in test [8]; more than 38.3 µM in test [9]; 1.15 µM and 1.67 µM in [10].
As to `C=CC(=O)Nc1cc(C)ccc1Nc1nc(Nc2cc(OC)ncc2C)ncc1C(F)(F)F`, the GI50 in test [1] is 0.758 µM; in test [2] it was 0.901 µM; in [3] it was 2.83 µM; in test [4], 0.692 µM; in test [5], 0.635 µM; in [6] it was 1.77 µM. Also, the GI50 in test [7] is 0.741 µM; in test [8], 0.322 µM; in test [9], 0.0883 µM; in [10], 0.157 µM. Moreover, the TGI is more than 100 µM in test [1]; 4.39 µM in test [2]; more than 100 µM in test [3]; more than 100 µM in test [4]; more than 22.9 µM in test [5]; 5.42 µM in [6]. Further, the TGI is more than 66.7 µM in test [7], 3.23 µM in test [8], 1.08 µM in [9] and 0.598 µM in test [10].
With `Oc1ccc2ccccc2c1N=Nc1ccsc1`, the TGI in test [1], in test [2], in [3], in test [4], in test [5] and in [6] was more than 100 µM each time. The TGI in test [7], in test [8], in test [9] and in test [10] was more than 100 µM throughout.
Take `COc1cccc(NC(=O)c2sc3nc(C)c(C(O)c4ccccc4)cc3c2N)c1` (stereo not given): the GI50 is 0.289 µM in [1]; 2.03 µM in test [2]; 0.469 µM in [3]; 0.665 µM in test [4]; 0.401 µM in test [5]; 0.287 µM in test [6]. Further, the GI50 is 0.481 µM in [7], 0.228 µM in [8], 3.65 µM in [9] and 0.0971 µM in test [10]. Moreover, the TGI in test [1] was 22.3 µM; in test [2], 23.7 µM; in [3], more than 66.7 µM; in test [4] it was 26.6 µM; in [5], 15.8 µM; in test [6], 1.32 µM. Also, the TGI in test [7] turned out to be 26.2 µM; in test [8], 27.1 µM; in [9], 35.3 µM; in [10], 0.615 µM.
Regarding `COc1c2ccoc2c(OC)c2oc(=O)ccc12`, the TGI in [1], in [2], in [3], in [4], in [5] and in test [6] was more than 100 µM in each case. Besides, the TGI in [7], in [8], in [9] and in [10] was more than 100 µM throughout.
